In article PMC12621189, “Optimization of Selective and CNS Penetrant Alkyne-Based TREK Inhibitors: The Discovery and Characterization of ONO-9517601 (VU6022856) and ONO-7927846 (VU6024391)” (Journal of Medicinal Chemistry, 2025):
Where “and” joins values, the source holds several entries; their conditions need not be identical. Equal values may be shown once.

Assays:
[1] = Liver microsome intrinsic clearance, mouse; format: in vitro ADME; settings: mouse liver microsomes, predicted intrinsic clearance, read-out: LMS CLINT mouse
hTREK-1 = target: T1, hTREK-1 (Homo sapiens, UniProt O95069); assay: hTREK-1 manual patch clamp assay; format: cell-based; settings: human TREK-1, manual patch clamp; read-out: TREK-1 IC50 (human, MPC)
T1 construct: expressed in transfected cells
T1 sequence (O95069 1-426): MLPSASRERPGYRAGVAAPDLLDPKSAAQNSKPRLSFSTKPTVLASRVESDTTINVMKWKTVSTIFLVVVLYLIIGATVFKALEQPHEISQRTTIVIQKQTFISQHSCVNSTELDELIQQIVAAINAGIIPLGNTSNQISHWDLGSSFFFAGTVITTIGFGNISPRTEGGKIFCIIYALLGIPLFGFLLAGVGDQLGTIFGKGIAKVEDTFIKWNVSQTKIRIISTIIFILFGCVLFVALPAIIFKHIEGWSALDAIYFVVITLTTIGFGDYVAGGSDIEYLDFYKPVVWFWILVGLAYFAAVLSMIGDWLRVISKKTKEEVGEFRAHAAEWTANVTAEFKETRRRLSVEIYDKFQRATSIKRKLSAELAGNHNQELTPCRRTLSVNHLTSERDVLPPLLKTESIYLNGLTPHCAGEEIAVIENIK
Procedure: hTREK-1 and mTREK-1 patch clamp assay
CHO-K1 cells stably expressing hTREK-1 or CHO-K1 cells transiently expressing mouse TREK-1 (mTREK-1) were plated on glass coverslips, and voltage clamped in the whole-cell configuration of the patch clamp technique. Cells were voltage clamped at a holding potential of - 80 mV and the stepped to 0 mV for 500 msec. The voltage was subsequently ramped from -120mV to +80 mV over a 500 msec duration. This step-ramp protocol was repeated every 10 sec. The bathing solution contained the following: 135 mM NaCl, 5 mM KCl, 2 mM CaCl2, 1 mM MgCl2, 5 mM D-Glucose, 10 mM HEPES, 10 mM sucrose (adjusted to pH 7.4 with NaOH, 300 mosmol/kg H2O). The pipette solution contained the following: 135 mM KCl, 2 mM MgCl2, 1 mM EGTA, 10 mM HEPES, 2 mM Na2ATP (adjusted to pH 7.35 with KOH, 285 mosmol/kg H2O). Test […]
compounds were dissolved into the bathing solution. The effects of test compound on the currents were calculated at 0 mV using the following equations:
% inhibition = (1-post current/pre current) x 100
% inhibition vs compound concentrations were plotted in GraphPad Prism and calculated IC50. […]

CYP 3A4 = CYP 3A4 (Homo sapiens, UniProt P08684); assay: CYP450 inhibition 3A4; format: in vitro ADME
hERG = hERG (Homo sapiens, UniProt Q12809); assay: Functional hERG inhibition; format: cell-based
mouse TREK-1 = mouse TREK-1 (Mus musculus, UniProt P97438); assay: mouse TREK-1 thallium flux; format: cell-based; settings: read-out: TREK-1 IC50 (mouse, Tl+)
[2] = tested on: 68 GPCRs, ion channels, and transporters; assay: Eurofins Lead Profiling Panel, radioligand binding displacement; settings: 68 targets, 10 μM
CYP 2C9 = CYP 2C9 (Homo sapiens, UniProt P11712); assay: CYP450 inhibition 2C9; format: in vitro ADME
[3] = Brain homogenate binding, rat; format: in vitro ADME; settings: bound
Procedure: concentration), which was aliquoted in triplicate to the ‘bottom half’ of the prepared HTD plate wells. The HTD plate was sealed and incubated for 6 hours at 37 °C. Following incubation, each well (both top and bottom halves) were transferred (20 µL) to the corresponding wells of a 96-shallow-well (V-bottom) plate. The daughter plates were then matrix-matched (DPBS side wells received equal volume of plasma, and plasma side wells received equal volume of DPBS), and extraction solution (120 µL; acetonitrile containing 50 nM carbamazepine as IS) was added to all wells of both daughter plates to precipitate protein and extract test article. […]
The unbound fraction (f u) was calculated following the equation below, and mean values for each species were calculated from 3 replicates.
A similar approach was used to determine the degree of brain homogenate binding, which employed the same methodology and procedure with the following modifications: 1) a final compound concentration of 1 μM was used, 2) naïve rat brains were homogenized in DPBS (1:3 composition of brain: DPBS, w/w) using a Mini-Bead Beater™ machine in order to obtain brain homogenate, which was then treated in the same manner as the plasma samples in the previously described plasma protein binding assay. Fraction unbound for both plasma and brain samples was determined using Equation 4. […]

CYP 2D6 = CYP 2D6 (Homo sapiens, UniProt P10635); assay: CYP450 inhibition 2D6; format: in vitro ADME
[4] = Plasma protein binding, mouse; format: in vitro ADME; settings: bound; for fraction unbound at 6 h, 5 µM: mouse, plasma, pH 7.4, mouse plasma, read-out: PPB mouse (converted)
Procedure: Plasma protein binding and Brain homogenate binding: Determination of fraction unbound (f u) in plasma was conducted in vitro via equilibrium dialysis using HTDialysis (HTD) membrane plates. The top half of the plate was filled with 100 uL of Dubelco’s Phosphate Buffered Saline, pH 7.4 (DPBS). Compounds were diluted into plasma from each species (5 µM final concentration), which was aliquoted in triplicate to the ‘bottom half’ of the prepared HTD plate wells. The HTD plate was sealed and incubated for 6 hours at 37 °C. Following incubation, each well (both top and bottom halves) were transferred (20 µL) to the corresponding wells of a 96-shallow-well (V-bottom) plate. The daughter plates were then matrix-matched (DPBS side wells received equal volume of plasma, and plasma side wells received equal volume of DPBS), and extraction solution (120 µL; acetonitrile containing 50 nM carbamazepine as IS) was added to all wells of both daughter plates to precipitate protein and extract test article. The plates were then sealed and centrifuged (3500 rcf) for 10 minutes at ambient temperature. Supernatant (60 µL) from each well of the daughter plates was then transferred to the corresponding wells of new daughter plates (96-shallow-well, V bottom) containing water (Milli-Q, 60 µL/well), and the plates were sealed in preparation for LC-MS/MS analysis (see LC-MS/MS analysis method below).
The unbound fraction (f u) was calculated following the equation below, and mean values for each species were calculated from 3 replicates. […]
Fraction unbound for both plasma and brain samples was determined using Equation 4.
Equation 4 Determination of fraction unbound in plasma. […]

A3 = A3 (Homo sapiens, UniProt P0DMS8); assay: Functional assay, adenosine A3; format: biochemical
A3, sequence (P0DMS8 whole entry): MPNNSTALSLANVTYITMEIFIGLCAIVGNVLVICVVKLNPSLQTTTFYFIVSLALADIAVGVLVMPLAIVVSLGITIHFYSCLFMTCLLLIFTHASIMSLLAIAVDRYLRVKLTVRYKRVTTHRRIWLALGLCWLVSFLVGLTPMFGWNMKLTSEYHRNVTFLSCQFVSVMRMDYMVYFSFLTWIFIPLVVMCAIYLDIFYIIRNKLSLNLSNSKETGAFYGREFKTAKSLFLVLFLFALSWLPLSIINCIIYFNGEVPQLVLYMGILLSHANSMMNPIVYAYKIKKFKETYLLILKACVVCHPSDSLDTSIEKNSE

CYP 2D6, sequence (P10635 whole entry): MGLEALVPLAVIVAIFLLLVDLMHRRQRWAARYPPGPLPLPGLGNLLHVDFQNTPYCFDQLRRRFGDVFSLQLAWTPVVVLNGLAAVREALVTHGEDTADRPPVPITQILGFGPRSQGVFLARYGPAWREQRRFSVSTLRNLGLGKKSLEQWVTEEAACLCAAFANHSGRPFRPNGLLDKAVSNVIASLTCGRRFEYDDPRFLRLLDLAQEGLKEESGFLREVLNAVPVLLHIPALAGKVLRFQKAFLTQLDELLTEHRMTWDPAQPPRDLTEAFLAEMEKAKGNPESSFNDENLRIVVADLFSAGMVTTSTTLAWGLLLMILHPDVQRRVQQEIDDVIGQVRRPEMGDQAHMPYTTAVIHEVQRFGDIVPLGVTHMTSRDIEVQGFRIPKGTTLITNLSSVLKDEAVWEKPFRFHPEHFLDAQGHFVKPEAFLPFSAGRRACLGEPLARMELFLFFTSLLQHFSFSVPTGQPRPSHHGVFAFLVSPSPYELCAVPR
CYP 2C9, sequence (P11712 whole entry): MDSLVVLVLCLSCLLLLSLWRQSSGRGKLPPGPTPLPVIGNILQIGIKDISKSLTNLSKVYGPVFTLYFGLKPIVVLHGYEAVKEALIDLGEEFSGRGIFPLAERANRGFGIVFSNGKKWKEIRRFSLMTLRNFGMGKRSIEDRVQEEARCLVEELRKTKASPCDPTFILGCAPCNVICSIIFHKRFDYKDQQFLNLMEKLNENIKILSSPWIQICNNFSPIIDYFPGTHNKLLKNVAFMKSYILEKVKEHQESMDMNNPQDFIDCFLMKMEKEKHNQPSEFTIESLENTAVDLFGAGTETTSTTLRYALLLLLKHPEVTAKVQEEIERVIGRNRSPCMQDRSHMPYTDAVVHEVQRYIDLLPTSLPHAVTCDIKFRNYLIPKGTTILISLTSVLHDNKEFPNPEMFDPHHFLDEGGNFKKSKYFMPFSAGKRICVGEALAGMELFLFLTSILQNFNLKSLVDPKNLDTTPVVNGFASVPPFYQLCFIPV
hERG, sequence (Q12809 whole entry): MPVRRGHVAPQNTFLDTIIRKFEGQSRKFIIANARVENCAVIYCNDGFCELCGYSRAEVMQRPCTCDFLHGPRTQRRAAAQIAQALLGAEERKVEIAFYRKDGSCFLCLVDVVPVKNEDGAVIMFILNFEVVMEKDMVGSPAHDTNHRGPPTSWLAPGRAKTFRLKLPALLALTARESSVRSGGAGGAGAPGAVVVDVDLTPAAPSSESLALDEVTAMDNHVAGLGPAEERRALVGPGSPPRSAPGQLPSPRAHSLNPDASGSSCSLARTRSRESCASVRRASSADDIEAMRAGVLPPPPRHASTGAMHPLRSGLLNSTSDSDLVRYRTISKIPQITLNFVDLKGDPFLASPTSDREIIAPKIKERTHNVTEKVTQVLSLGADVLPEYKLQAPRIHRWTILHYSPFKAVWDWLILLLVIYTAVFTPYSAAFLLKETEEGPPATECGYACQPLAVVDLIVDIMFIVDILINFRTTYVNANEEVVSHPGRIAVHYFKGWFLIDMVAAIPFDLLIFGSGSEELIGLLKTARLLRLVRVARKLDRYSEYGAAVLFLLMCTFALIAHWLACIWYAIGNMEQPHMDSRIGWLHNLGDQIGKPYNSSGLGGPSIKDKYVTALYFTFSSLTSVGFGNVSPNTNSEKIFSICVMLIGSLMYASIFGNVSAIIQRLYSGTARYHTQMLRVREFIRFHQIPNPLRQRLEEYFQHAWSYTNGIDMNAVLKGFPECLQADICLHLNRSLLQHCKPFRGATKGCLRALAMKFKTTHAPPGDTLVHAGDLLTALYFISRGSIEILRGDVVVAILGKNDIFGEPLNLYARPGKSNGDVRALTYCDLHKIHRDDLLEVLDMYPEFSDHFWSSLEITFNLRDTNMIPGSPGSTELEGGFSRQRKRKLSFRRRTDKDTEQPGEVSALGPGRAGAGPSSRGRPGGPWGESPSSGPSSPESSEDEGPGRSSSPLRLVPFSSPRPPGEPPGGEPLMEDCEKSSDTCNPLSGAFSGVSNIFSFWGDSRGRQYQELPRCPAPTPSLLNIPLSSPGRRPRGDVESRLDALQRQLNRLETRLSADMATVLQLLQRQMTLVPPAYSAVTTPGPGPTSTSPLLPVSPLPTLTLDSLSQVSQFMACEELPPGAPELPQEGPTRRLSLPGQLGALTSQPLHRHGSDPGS
mouse TREK-1, sequence (P97438 whole entry): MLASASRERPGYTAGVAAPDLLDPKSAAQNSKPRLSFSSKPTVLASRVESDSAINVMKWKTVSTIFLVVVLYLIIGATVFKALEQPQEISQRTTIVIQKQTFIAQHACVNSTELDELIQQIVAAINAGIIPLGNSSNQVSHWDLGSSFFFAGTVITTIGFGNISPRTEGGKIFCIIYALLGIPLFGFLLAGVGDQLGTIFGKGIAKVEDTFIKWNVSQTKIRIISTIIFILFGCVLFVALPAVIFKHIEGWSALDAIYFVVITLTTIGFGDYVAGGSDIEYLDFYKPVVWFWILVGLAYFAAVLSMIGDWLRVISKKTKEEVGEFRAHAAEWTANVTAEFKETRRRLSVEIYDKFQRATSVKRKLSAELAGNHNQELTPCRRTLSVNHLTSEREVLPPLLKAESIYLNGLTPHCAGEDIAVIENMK
CYP 3A4, sequence (P08684 whole entry): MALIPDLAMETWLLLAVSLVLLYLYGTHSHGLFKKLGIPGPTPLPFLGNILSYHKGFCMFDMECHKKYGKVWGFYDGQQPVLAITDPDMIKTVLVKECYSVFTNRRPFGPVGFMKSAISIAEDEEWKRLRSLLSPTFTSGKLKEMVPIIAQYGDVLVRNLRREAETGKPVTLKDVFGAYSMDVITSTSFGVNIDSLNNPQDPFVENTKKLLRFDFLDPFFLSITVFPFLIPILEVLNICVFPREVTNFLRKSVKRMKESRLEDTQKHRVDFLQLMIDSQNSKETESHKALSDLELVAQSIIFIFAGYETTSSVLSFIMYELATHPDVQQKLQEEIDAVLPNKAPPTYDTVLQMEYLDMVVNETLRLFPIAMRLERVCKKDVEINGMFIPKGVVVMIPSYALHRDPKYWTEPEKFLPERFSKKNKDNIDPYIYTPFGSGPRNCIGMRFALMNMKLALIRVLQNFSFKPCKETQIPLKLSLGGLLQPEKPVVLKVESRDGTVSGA

SMILES	CLint scaled at 1 µM ([1]; pH 7.4) [mL/min/kg]	IC50 (hTREK-1) [µM]	CLint scaled [1] [mL/min/kg]	IC50 (CYP 3A4) [µM]	IC50 (hERG) [µM]	IC50 (mouse TREK-1) [µM]	targets with >50% inhibition in Lead Profiling Panel [2]	IC50 (CYP 2C9) [µM]	BHB rat [3]	IC50 (CYP 2D6) [µM]	fraction unbound at 6 h, 5 µM [4]	IC50 (A3) [µM]	PPB mouse ([4]; mouse plasma) [%]
Cc1cc(C#Cc2ccccc2)cnc1NC(=O)c1cc(OC[C@@H]2COCCO2)ccc1Cl [Compound 7, (S)-5-((1,4-Dioxan-2-yl)methoxy)-2-chloro-N-(3-methyl-5-(phenylethynyl)pyridin-2-yl)benzamide]	88	0.079											
CC(=O)N1CCC(n2ncc(Cl)c2C(=O)Nc2ncc(C#Cc3ccccc3)cc2C)CC1 [Compound 10, 1-(1-Acetylpiperidin-4-yl)-4-chloro-N-(3-methyl-5-(phenylethynyl)pyridin-2-yl)-1H-pyrazole-5-carboxamide]		0.063	8	10.8	6.7	0.23	only two targets displayed >50% inhibition	6.1	99.5% and 99.5, 99.5%	10.3	0.018	5.37	
CC(=O)N1CC[C@@H](n2ncc(Cl)c2C(=O)Nc2ncc(C#Cc3ccc(F)cc3)cc2C)[C@H](F)C1 [Compound 11, 1-((3R,4R)-1-Acetyl-3-fluoropiperidin-4-yl)-4-chloro-N-(5-((4-fluorophenyl)ethynyl)-3-methylpyridin-2-yl)-1H-pyrazole-5-carboxamide]		0.064	134	10.5	4.3	0.44	only two targets displayed >50% inhibition	4.9	99.4%	7		19.8	
Cc1cc(C#Cc2ccccc2)cnc1NC(=O)c1c(Cl)cnn1[C@H]1CCOC1 [Compound 15a, (S)-4-Chloro-N-(3-methyl-5-(phenylethynyl)pyridin-2-yl)-1-(tetrahydrofuran-3-yl)-1H-pyrazole-5-carboxamide]											~0.02		98.0
